Measurements as given in patent US7265103B2, “Substituted amino isoxazoline derivatives and their use as anti-depressants” (Janssen Pharmaceutica NV., priority 2002, dated 2007).
pIC50: −log10 of the molar value.

Key:
[1] = biological target: T1, hα2C receptor (Homo sapiens, UniProt P18825); assay: Radioligand binding experiment for α2C-adrenergic receptor ([3H]-raulwolscine); conditions: CHO cell membranes with human α2C receptor, [3H]raulwolscine 1 nM; read-out: pIC50 α2C (converted)
T1 construct: expressed in transfected cells; host or cells: CHO cells
T1 sequence (P18825 1-462): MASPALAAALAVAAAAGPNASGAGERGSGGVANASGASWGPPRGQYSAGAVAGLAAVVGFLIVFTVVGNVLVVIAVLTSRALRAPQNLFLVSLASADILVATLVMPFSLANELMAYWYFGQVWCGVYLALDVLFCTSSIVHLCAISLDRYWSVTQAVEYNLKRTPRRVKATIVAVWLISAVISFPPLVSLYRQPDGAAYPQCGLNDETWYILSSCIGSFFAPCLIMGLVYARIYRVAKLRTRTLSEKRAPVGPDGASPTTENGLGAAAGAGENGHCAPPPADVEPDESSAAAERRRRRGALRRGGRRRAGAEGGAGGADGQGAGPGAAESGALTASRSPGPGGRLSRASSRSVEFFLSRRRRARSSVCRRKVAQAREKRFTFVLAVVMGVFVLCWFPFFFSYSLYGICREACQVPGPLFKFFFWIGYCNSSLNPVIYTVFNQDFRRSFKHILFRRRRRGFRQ
Outline: (§1)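 Membranes from CHO cells stably expressing human α2A or α2C receptors (sodium butyrate-induced) incubated with 1 nM [3H]raulwolscine in 25 mM glycylglycine pH 8.0 for 60 min at 25° C, then filtered. Non-specific binding defined with 1 μM oxymetazoline (α2A) or 1 μM spiroxatrine (α2C); pIC50 from sigmoidal competition curves.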

[2] = biological target: T2, h5-HT transporter (Homo sapiens, UniProt P31645); assay: Radioligand binding experiment for 5-HT transporter ([3H]paroxetine); conditions: human platelet membranes, [3H]paroxetine 0.5 nM
T2 construct: Human platelet membranes (Oceanix Biosciences Corporation, Hanover, Md., USA) were thawed; tissue Oceanix Biosciences Corporation; host or cells: human platelet membranes
Outline: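 Competition binding on human platelet membranes (50-100 μg protein) in 50 mM Tris-HCl, 120 mM NaCl, 5 mM KCl with 0.5 nM [3H]paroxetine, 60 min at 25 °C, filtration and scintillation counting. Non-specific binding defined with 1 μM imipramine; pIC50 from nonlinear sigmoidal fits of percent total binding.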

[3] = biological target: T3, hα2A receptor (Homo sapiens, UniProt P08913); assay: Radioligand binding experiment for α2A-adrenergic receptor ([3H]-raulwolscine); conditions: CHO cell membranes with human α2A receptor, [3H]raulwolscine 1 nM; read-out: pIC50 α2A (converted)
T3 construct: expressed in transfected cells; host or cells: CHO cells
T3 sequence (P08913 1-465): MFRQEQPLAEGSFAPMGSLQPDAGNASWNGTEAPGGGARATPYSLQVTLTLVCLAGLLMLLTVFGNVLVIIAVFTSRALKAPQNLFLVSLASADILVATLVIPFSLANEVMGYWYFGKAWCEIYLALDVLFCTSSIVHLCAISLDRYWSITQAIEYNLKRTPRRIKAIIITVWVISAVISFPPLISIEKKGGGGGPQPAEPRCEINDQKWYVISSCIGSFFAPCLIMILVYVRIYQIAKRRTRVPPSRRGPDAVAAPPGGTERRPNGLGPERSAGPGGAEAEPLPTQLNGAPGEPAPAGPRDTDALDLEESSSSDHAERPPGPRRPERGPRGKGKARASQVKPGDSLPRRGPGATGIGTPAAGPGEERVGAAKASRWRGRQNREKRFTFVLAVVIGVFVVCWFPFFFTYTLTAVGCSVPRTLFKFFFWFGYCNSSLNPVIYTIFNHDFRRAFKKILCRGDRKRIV
Outline: as §1

T2 sequence (P31645 whole entry): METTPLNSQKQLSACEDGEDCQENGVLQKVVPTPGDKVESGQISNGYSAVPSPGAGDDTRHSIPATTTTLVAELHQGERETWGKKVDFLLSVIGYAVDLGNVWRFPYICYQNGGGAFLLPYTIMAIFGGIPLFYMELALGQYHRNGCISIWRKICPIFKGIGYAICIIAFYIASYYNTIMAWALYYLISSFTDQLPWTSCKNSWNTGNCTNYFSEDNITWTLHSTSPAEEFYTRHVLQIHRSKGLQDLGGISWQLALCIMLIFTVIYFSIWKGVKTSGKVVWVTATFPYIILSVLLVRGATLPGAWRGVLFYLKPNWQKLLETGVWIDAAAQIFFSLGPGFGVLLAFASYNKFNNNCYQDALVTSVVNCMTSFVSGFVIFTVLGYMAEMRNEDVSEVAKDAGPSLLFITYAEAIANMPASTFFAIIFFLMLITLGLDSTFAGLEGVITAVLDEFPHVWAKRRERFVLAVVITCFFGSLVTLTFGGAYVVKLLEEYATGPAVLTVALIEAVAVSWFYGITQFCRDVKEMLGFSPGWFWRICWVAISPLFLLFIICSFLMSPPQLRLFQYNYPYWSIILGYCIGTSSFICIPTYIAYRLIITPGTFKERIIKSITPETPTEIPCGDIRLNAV

SMILES	IC50 [1]	pIC50 [2]	IC50 [3]	melting point
CC(=Cc1ccccc1)CN1CCN(CC2ON=C3c4ccc(Nc5ccccc5)cc4OCC32)CC1 (stereo not drawn) [Compound 40]	0.01 µM	7.30	0.0158 µM	127.1 to 131.4 °C
CC(=Cc1ccccc1)CN1CCN(CC2ON=C3c4ccc(N(C)c5ccccc5)cc4OCC32)CC1 (stereo not drawn) [Compound 41]	0.0251 µM	6.80	0.0251 µM	125.9 to 139.7 °C
CC(=Cc1ccccc1)CN1CCN(CC2ON=C3c4ccc(Nc5ccc(F)cc5)cc4OCC32)CC1 (stereo not drawn) [Compound 42]	0.0158 µM	6.90	0.0316 µM	130.8 to 134.1 °C
COc1ccc(Nc2ccc3c(c2)OCC2C3=NOC2CN2CCN(CC(C)=Cc3ccc(F)cc3)CC2)cc1 (stereo not drawn) [Compound 43]	0.126 µM	6.20	0.398 µM	131.7 to 134.5 °C
CC(=Cc1ccccc1)CN1CCN(CC2ON=C3c4ccc(Nc5cccc(C#N)c5)cc4OCC32)CC1 (stereo not drawn) [Compound 44]	0.02 µM	7.80	0.0158 µM	152.7 to 162.6 °C
CC(=Cc1ccccc1)CN1CCN(CC2ON=C3c4ccc(Nc5ccccc5C)cc4OCC32)CC1 (stereo not drawn) [Compound 45]	0.02 µM	7.10	0.02 µM	133.3 to 148.9 °C
CC(=Cc1ccccc1)CN1CCN(CC2ON=C3c4ccc(Nc5ccc(C)c(C)c5)cc4OCC32)CC1 (stereo not drawn) [Compound 46]	0.0398 µM	6.50	0.0631 µM	138.9 to 151.3 °C
CC(=Cc1ccccc1)CN1CCN(CC2ON=C3c4ccc(NC(=O)C(C)(C)C)cc4OCC32)CC1 (stereo not drawn) [Compound 50]	0.001 µM	7.80	0.00316 µM	183.4 to 190.2 °C
C=CC(=O)Nc1ccc2c(c1)OCC1C2=NOC1CN1CCN(CC(C)=Cc2ccccc2)CC1 (stereo not drawn) [Compound 54]	0.000794 µM	7.60	0.00158 µM	136.1 to 172.9 °C
CC(=Cc1ccccc1)CN1CCN(CC2ON=C3c4ccc(NC(=O)NC(C)(C)C)cc4OCC32)CC1 (stereo not drawn) [Compound 61]	0.002 µM	7.70	0.00794 µM	98.4 to 113.5 °C
CC(=Cc1ccccc1)CN1CCN(CC2ON=C3c4ccc(NC(=O)NC5CCCCC5)cc4OCC32)CC1 (stereo not drawn) [Compound 62]	0.00631 µM	7.40	0.0251 µM	121.1 to 136.5 °C
CCOC(=O)CNC(=O)Nc1ccc2c(c1)OCC1C2=NOC1CN1CCN(CC(C)=Cc2ccccc2)CC1 (stereo not drawn) [Compound 63]	0.00158 µM	7.50	0.00794 µM	175.3 to 177 °C
CC(=Cc1ccccc1)CN1CCN(CC2ON=C3c4ccc(NC(=O)Nc5ccccc5)cc4OCC32)CC1 (stereo not drawn) [Compound 64]	0.0158 µM	6.60	0.0251 µM	180.3 to 181.6 °C
CC(=Cc1ccccc1)CN1CCN(CC2ON=C3c4ccc(NC(=O)Nc5cccc(F)c5)cc4OCC32)CC1 (stereo not drawn) [Compound 65]	0.0316 µM	5.80	0.0794 µM	186.8 to 188.5 °C
CC(=Cc1ccccc1)CN1CCN(CC2ON=C3c4ccc(N(S(C)(=O)=O)S(C)(=O)=O)cc4OCC32)CC1 (stereo not drawn) [Compound 66]	0.000501 µM	7.40	0.00501 µM	201.8 to 202.9 °C
CC(=Cc1ccc(F)cc1)CN1CCN(CC2ON=C3c4ccc(N5CCCC5)cc4OCC32)CC1 (stereo not drawn) [Compound 70]	0.00794 µM	7.00	0.0126 µM	194.7 to 204.9 °C
CC(=Cc1ccc(F)cc1)CN1CCN(CC2ON=C3c4ccc(N5CCCCC5)cc4OCC32)CC1 (stereo not drawn) [Compound 71]	0.00631 µM	7.00	0.0631 µM	168.2 to 169.4 °C
CCOC(=O)C1CCN(c2ccc3c(c2)OCC2C3=NOC2CN2CCN(CC(C)=Cc3ccc(F)cc3)CC2)CC1 (stereo not drawn) [Compound 72]	0.02 µM	6.20	0.1 µM	156.4 to 161 °C
COc1cc2c(cc1N1CCN(C)CC1)OCC1C2=NOC1CN1CCN(CC(C)=Cc2ccccc2)CC1 (stereo not drawn) [Compound 75]	< 0.001 µM	8.10	0.00158 µM	142.8 to 144.4 °C
CC(=Cc1ccc(F)cc1)CN1CCN(CC2ON=C3c4ccc(N5CCN(C)CC5)cc4OCC32)CC1 (stereo not drawn) [Compound 77]	0.00251 µM	8.50	0.0398 µM	147.3 to 150.6 °C
CC(=Cc1ccc(F)cc1)CN1CCN(CC2ON=C3c4ccc(N5CCN(c6ccccc6)CC5)cc4OCC32)CC1 (stereo not drawn) [Compound 79]	0.00794 µM	6.70	0.251 µM	203.5 to 206.2 °C
CC(=Cc1ccc(F)cc1)CN1CCN(CC2ON=C3c4ccc(N5CCN(Cc6ccccc6)CC5)cc4OCC32)CC1 (stereo not drawn) [Compound 80]	0.00398 µM	6.90	0.126 µM	166.4 to 178.2 °C
CC(=Cc1ccc(F)cc1)CN1CCN(CC2ON=C3c4ccc(N5CCN(CC=Cc6ccccc6)CC5)cc4OCC32)CC1 (stereo not drawn) [Compound 81]	0.02 µM	7.20	0.126 µM	154.9 to 160.4 °C
COc1cc2c(cc1N1CCOCC1)OCC1C2=NOC1CN1CCN(CC(C)=Cc2ccccc2)CC1 (stereo not drawn) [Compound 82]	0.00126 µM	7.40	0.00158 µM	143.5 to 145.9 °C
CC(=Cc1ccc(F)cc1)CN1CCN(CC2ON=C3c4ccc(N5CCOCC5)cc4OCC32)CC1 (stereo not drawn) [Compound 84]	0.00126 µM	7.60	0.00631 µM	179.2 to 188.8 °C
C/C(=C\c1cccc(F)c1)CN1CCN(CC2ON=C3c4cc5c(cc4OCC32)NCCO5)CC1 (stereo not drawn) [Compound 89]	0.001 µM	8.40	0.00398 µM	145.4 to 153.1 °C
C/C(=C\c1ccc(F)cc1)CN1CCN(CC2ON=C3c4cc5c(cc4OCC32)NCCO5)CC1 (stereo not drawn) [Compound 90]	0.00158 µM	7.80	0.0158 µM	160.6 to 172.2 °C
C/C(=C\CN1CCN(CC2ON=C3c4cc5c(cc4OCC32)NCCO5)CC1)c1ccccc1 (stereo not drawn) [Compound 91]	0.00158 µM	7.50	0.00631 µM	130.4 to 146.4 °C
c1ccc2cc(CN3CCN(CC4ON=C5c6cc7c(cc6OCC54)NCCO7)CC3)ccc2c1 (stereo not drawn) [Compound 92]	0.00251 µM	8.30	0.02 µM	85.3 to 103.9 °C
Clc1ccc(CN2CCN(CC3ON=C4c5cc6c(cc5OCC43)NCCO6)CC2)cc1 (stereo not drawn) [Compound 94]	0.0316 µM	6.90	0.316 µM	186.5 to 198 °C
